# Results from ChEMBL document CHEMBL1201862, “PubChem BioAssay data set” (2004).
# The source made the active and inactive calls.
# Key:
# Fibrinogen beta chain [1] = molecular target: T1, Fibrinogen beta chain (Homo sapiens, UniProt P02675); experiment: Fluorescence polarization-based biochemical high throughput dose response assay to identify inhibitors that disrupt the binding of a cyclic peptide (Tn6) to the fibrin proteolytic product D-Dimer and fragment E complex [DD(E )].
# T1 sequence (P02675 whole entry): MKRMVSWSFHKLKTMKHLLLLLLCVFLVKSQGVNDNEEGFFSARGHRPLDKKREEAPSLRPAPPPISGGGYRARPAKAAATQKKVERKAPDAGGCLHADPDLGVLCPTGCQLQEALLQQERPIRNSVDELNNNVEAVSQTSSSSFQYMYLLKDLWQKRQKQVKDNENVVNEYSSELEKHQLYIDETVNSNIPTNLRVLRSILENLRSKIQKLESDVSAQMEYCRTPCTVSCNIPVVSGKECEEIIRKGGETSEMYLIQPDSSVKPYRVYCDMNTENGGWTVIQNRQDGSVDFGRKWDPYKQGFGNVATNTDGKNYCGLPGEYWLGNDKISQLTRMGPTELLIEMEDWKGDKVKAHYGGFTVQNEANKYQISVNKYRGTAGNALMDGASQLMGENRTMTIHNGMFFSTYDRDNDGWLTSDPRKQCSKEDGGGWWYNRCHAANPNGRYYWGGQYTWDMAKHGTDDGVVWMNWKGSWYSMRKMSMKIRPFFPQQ
# Fibrinogen beta chain [2] = molecular target: T1, Fibrinogen beta chain; experiment: Fluorescence polarization-based biochemical high throughput dose response assay to identify inhibitors that disrupt the binding of a cyclic peptide (Tn7) to the fibrin proteolytic product D-Dimer and fragment E complex [DD(E )].
# [3] = molecular target: T2, DNA repair protein RAD52 homolog (Homo sapiens, UniProt P43351); assay type: functional, biochemical
# T2 sequence (P43351 whole entry): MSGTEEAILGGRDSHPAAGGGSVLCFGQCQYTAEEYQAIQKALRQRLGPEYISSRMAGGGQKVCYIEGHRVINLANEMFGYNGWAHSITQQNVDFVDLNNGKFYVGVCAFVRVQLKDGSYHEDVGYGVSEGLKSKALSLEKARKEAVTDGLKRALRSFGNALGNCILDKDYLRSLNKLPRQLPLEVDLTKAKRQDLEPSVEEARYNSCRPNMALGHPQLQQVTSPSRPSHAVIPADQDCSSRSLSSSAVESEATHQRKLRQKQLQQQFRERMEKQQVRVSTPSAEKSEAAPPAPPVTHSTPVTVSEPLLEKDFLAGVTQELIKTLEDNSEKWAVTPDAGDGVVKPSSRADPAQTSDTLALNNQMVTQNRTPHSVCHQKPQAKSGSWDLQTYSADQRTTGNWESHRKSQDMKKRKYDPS
# [4] = molecular target: E3 ubiquitin-protein ligase UHRF1 (Homo sapiens, UniProt Q96T88); experiment: Counterscreen for inhibitors of 5-meCpG-binding domain protein 2 (MBD2): TRFRET-based biochemical high throughput dose response assay to identify inhibitors of binding of ubiquitin-like with PHD and ring finger domains 1 (UHRF1) to methylated oligonucleotide.
# [5] = molecular target: T3, Potassium channel subfamily K member 9 (Homo sapiens, UniProt Q9NPC2); experiment: KCNK9 (TASK3) current inhibition by patch clamp, SAR follow-up, selectivity assay for TASK1 (KCNK3) inhibitor project, cell-based, automated electrophysiology (AID 652210); assay type: functional
# [6] = molecular target: T3, Potassium channel subfamily K member 9; experiment: TASK3 (KCNK9) channel inhibitors, thallium flux, SAR follow-up, selectivity assay for TASK1 inhibitor project, cell-based, FluxOR thallium flux, concentration-response (AID 652211); assay type: functional;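 also: potency is for inhibitors of the channel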
# [7] = molecular target: Potassium channel subfamily K member 3 (Rattus norvegicus, UniProt O54912); experiment: SAR analysis for the identification of selective inhibitors of the two-pore domain potassium channel TASK1(KCNK3):Automated Electrophysiology.; assay type: functional
# Prothrombin = Prothrombin (Homo sapiens, UniProt P00734); experiment: Thrombin 1536 HTS Dose Response Confirmation. [Related pubchem assays: 1046 (Thrombin 1536 HTS; hits were confirmed in this assay)]; assay type: functional
# Estrogen receptor beta [8] = molecular target: T4, Estrogen receptor beta (Homo sapiens, UniProt Q92731);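 also: recombinant ER-beta bound to coactivator SRC1 peptide in presence of estradiol agonist; inhibitors block coactivator peptide binding and lower the FRET signal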
# Estrogen receptor beta [9] = molecular target: T4, Estrogen receptor beta; experiment: ERβ–SRC-3 coactivator interaction inhibitors, confirmation, orthogonal assay, biochemical, ELISA, streptavidin-HRP readout (AID 1060)
# P388 = experiment: cells; assay type: functional; conditions: Mus musculus
# P388/ADR = experiment: cells; assay type: functional; conditions: Mus musculus
# [10] = HeLa 4N DNA content increase, dose response, cell-based, IC50 (AID 1117351); assay type: functional
# [11] = HeLa 2N DNA content increase, dose response, cell-based, IC50 (AID 1117349); assay type: functional
# SN12K1 = experiment: cells; assay type: functional; conditions: Homo sapiens
# [12] = molecular target: T5, Carboxy-terminal domain RNA polymerase II polypeptide A small phosphatase 1 (Homo sapiens, UniProt Q9GZU7); experiment: inhibitors of CTDSP1, concentration-response testing, biochemical assay, absorbance-based, actives from ultra-high-throughput screening (AID 540297); assay type: functional
# T5 sequence (Q9GZU7 whole entry): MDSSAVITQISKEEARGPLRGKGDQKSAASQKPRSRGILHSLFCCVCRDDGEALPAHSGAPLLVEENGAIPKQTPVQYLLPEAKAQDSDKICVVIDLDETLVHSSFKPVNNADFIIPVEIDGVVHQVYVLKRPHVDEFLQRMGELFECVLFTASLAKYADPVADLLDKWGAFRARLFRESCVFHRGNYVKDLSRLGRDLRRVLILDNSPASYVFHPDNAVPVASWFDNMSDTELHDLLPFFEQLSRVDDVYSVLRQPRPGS
# HEK293 [13] = experiment: cells; assay type: functional, cell-based; conditions: Homo sapiens
# HEK293 [14] = experiment: NOD2 signaling inhibitors in MDP-stimulated cells, cell-based, uHTS, luminescence (AID 2001); assay type: functional; conditions: Homo sapiens
# [15] = Shn3 3'UTR reporter inhibitors, dose response, cell-based, Clone20 osteoblasts, firefly luciferase, cherry-picked (AID 624132); assay type: functional;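 also: firefly luciferase luminescence from reporter carrying the Shn3 3'UTR in osteoblasts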
# [16] = HepG2 cell cytotoxicity, dose response, cytotoxicity control for Shn3 inhibitor project, CellTiter-Glo, cherry-picked (AID 624134); assay type: functional, cell-based
# [17] = reduction of Shn3 3'UTR firefly luciferase signal, dose response, Schnurri-3 inhibitor project, cell-based, Clone20 osteoblasts, cherry-pick, set 2 (AID 720490); assay type: functional;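 also: actives lower the luminescence signal as inhibitors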
# [18] = inhibitors of control Renilla luciferase reporter, dose response, counter-screen for Shn3 3'UTR targeting project, Clone20-Shn3RL cells, dual-Glo, cherry-pick, set 2 (AID 720724); assay type: functional, cell-based; conditions: Dual-Go Shn3RL
# [19] = control 3'UTR Renilla luciferase suppression, dose response, counter-screen for Shn3 inhibitor project, cell-based, Clone20-Shn3RL, cherry-picked (AID 624133); assay type: functional
# HEK293 [20] = experiment: NOD1 signaling inhibitors, primary screen, cell-based, luminescence, uHTS (AID 1578); assay type: functional; conditions: Homo sapiens
# Tumor necrosis factor = Tumor necrosis factor (Homo sapiens, UniProt P01375); experiment: TNFa-triggered NF-kB activation inhibitors, SAR follow-up, cell-based, revised (AID 2337); assay type: functional
# HEK293 [21] = experiment: cells; assay type: functional, cell-based; conditions: Homo sapiens; remark: listed apart in the source
# [22] = molecular target: T6, Nucleotide-binding oligomerization domain-containing protein 1 (Homo sapiens, UniProt Q9Y239); experiment: NOD1 signaling inhibitors, SAR follow-up, revised (AID 2333); assay type: functional
# T6 sequence (Q9Y239 whole entry): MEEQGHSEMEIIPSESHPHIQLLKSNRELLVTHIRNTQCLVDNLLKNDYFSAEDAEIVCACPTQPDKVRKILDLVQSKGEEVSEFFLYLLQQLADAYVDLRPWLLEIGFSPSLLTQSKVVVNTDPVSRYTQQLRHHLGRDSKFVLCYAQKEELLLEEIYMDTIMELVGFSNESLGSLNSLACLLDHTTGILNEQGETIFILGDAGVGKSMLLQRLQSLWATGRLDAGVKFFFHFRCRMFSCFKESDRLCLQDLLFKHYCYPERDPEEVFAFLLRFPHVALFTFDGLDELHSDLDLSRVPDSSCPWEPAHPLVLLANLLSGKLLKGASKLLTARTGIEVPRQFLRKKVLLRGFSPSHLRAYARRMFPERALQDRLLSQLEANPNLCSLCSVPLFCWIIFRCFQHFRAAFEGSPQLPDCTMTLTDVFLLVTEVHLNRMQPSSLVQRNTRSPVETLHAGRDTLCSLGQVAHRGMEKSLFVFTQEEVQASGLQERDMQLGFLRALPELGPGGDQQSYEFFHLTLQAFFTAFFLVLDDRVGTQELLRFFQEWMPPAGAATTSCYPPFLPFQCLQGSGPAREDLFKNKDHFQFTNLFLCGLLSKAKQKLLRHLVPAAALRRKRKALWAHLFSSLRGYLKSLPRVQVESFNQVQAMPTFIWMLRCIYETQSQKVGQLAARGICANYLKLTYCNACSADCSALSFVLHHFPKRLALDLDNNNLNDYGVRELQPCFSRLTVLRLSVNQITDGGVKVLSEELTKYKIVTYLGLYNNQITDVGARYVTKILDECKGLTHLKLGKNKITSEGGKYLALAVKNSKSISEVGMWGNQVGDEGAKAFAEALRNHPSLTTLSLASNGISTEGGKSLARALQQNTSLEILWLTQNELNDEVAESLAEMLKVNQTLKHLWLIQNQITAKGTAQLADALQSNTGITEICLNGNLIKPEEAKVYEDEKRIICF
# HEK293 [23] = experiment: cells; conditions: Homo sapiens
# Kallikrein-7 = Kallikrein-7 (Homo sapiens, UniProt P49862); experiment: Fluorescence Intensity-based biochemical primary high throughput dose response assay to identify activators of kallikrein-7 (K7) zymogen.
# [24] = A375 melanoma cell viability loss, dose response, counter-screen for MITF inhibitor project, CellTiter-Glo luminescence, dry powder, set 4 (AID 624364); assay type: functional, cell-based; conditions: A-375;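 also: A375 melanoma cells are MITF independent so this is a counter screen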
# [25] = A375 melanoma cell cytotoxicity, dose response, counter-screen for MITF inhibitor project, CellTiter-Glo luminescence, dry powder, set 2 (AID 624489); assay type: functional, cell-based; conditions: A-375;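 also: actives are compounds lowering A375 viability meaning general cytotoxicity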
# [26] = growth suppression of beta-catenin-knockout colon cells, dose response, cell-based, HCT116, human colon tumor (AID 1045); assay type: functional;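 also: HCT116 colon tumor cells with beta catenin knocked out; cells exposed to compound for 60 hours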
# [27] = growth suppression of PTEN-null colon cells, dose response, cell-based, HCT116 PTEN knockout (AID 1047); assay type: functional;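 also: HCT116 colon tumor cells with PTEN knocked out; cells exposed to compound for 60 hours before readout; potency for loss of cell viability measured by luminescence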
# [28] = molecular target: Induced myeloid leukemia cell differentiation protein Mcl-1 (Homo sapiens, UniProt Q07820); assay type: functional
# Protein Tat = molecular target: T7, Protein Tat (Human immunodeficiency virus type 1 group M subtype B (isolate HXB2)(HIV-1), UniProt P04608); assay type: functional;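 also: tat binding to TAR RNA read out by fluorescence polarization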
# T7 sequence (P04608 whole entry): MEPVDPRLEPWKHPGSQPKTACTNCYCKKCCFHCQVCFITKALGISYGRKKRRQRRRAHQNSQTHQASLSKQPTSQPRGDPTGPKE
# [29] = Vero cell cytotoxicity, dose response, cytotoxicity control for Vif-APOBEC3G degradation inhibitor project, Vero cells (AID 1117358); assay type: functional; conditions: Human immunodeficiency virus 1, Vero
# [30] = Glucagon-like peptide 1 release potency, NCI-H716 cell line, dose-response, half-maximal inhibitory concentration (AID 1117344); assay type: functional, cell-based
# [31] = half-maximal inhibitory concentration for glucagon-like peptide-1 release, STC-1 cell line, dose-response (AID 1117345); assay type: functional, cell-based
# T4 sequence (Q92731 whole entry): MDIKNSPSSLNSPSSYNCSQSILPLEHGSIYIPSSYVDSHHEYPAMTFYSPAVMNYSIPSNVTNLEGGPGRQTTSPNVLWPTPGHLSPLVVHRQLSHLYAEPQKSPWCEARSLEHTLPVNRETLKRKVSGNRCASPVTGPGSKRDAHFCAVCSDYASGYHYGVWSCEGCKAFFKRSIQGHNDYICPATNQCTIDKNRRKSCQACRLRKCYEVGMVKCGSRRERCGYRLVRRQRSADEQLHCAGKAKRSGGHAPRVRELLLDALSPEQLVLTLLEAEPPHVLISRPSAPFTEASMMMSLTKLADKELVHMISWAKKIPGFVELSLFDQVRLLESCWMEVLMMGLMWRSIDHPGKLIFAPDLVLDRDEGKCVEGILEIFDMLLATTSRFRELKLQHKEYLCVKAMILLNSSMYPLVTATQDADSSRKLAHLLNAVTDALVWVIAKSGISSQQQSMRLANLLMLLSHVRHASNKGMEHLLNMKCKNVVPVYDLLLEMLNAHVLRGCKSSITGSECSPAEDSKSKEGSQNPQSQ
# T3 sequence (Q9NPC2 whole entry): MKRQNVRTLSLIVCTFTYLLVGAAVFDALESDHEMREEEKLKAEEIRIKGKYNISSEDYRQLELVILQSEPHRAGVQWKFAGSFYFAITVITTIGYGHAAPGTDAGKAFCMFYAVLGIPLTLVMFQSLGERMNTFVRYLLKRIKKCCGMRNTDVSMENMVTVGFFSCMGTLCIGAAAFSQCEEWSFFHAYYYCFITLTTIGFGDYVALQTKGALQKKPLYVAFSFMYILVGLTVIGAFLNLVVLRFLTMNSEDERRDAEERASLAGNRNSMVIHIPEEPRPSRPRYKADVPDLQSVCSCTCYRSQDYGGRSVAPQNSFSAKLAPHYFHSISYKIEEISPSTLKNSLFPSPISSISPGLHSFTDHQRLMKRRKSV
# Sequence of E3 ubiquitin-protein ligase UHRF1 (Q96T88 whole entry, the tested form may be a part): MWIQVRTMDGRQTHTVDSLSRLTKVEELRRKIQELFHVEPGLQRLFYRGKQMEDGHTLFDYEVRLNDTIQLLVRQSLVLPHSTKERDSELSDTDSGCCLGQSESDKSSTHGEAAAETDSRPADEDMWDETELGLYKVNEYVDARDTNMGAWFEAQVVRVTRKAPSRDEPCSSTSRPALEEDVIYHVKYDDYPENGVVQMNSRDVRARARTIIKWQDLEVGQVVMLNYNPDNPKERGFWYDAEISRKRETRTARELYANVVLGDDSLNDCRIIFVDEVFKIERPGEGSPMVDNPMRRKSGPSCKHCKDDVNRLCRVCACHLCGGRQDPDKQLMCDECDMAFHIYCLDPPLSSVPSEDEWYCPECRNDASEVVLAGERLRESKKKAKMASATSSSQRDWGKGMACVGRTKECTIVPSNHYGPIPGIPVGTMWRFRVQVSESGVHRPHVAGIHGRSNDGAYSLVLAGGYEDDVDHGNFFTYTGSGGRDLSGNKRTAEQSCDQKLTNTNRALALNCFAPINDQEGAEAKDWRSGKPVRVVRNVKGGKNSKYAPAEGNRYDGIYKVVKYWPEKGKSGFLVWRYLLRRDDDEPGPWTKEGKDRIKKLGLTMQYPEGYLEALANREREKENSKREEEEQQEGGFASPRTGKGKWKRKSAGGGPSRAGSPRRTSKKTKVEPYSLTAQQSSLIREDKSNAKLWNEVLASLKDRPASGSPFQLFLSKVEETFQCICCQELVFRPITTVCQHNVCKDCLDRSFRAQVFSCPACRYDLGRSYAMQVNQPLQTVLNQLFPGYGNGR
# Sequence of Kallikrein-7 (P49862 whole entry): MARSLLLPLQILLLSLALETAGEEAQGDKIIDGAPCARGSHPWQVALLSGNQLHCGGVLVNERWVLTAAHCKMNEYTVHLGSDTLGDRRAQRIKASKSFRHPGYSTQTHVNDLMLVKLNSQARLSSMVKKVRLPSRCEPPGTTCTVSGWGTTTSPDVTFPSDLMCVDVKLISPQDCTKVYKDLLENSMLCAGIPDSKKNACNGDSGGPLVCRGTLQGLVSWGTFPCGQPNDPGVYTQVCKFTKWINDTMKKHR
# Sequence of Induced myeloid leukemia cell differentiation protein Mcl-1 (Q07820 whole entry): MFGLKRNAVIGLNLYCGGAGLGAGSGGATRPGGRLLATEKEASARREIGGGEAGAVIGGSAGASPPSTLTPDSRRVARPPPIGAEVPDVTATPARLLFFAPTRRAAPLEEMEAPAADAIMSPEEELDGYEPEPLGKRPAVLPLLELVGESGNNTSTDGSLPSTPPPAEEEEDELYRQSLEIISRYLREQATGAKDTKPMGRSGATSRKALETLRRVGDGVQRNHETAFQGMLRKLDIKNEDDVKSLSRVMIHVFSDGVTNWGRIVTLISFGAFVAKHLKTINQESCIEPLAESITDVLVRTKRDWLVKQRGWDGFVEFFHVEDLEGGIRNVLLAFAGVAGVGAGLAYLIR
# Sequence of Tumor necrosis factor (P01375 whole entry): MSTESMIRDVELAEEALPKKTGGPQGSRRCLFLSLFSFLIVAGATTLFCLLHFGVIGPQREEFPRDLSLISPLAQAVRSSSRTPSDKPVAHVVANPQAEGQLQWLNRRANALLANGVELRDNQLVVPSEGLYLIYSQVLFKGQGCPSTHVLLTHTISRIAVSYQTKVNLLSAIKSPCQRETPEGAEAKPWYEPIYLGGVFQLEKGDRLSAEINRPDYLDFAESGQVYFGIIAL
# Sequence of Potassium channel subfamily K member 3 (O54912 whole entry, the tested form may be a part): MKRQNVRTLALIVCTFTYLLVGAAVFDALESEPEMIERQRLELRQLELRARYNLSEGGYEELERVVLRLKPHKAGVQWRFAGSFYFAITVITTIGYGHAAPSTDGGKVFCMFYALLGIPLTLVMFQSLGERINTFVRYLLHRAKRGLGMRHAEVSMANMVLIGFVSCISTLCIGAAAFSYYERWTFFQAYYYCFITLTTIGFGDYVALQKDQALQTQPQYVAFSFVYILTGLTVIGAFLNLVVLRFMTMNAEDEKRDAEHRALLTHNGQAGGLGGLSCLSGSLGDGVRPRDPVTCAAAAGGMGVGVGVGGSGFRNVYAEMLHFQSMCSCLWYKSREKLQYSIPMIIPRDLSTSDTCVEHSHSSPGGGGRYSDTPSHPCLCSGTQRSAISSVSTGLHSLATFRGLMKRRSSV
smiles,measurement,setting,value
Cc1cc(C)c(S(=O)(=O)NCCn2c(C)cc3ccccc32)c(C)c1,IC50,Fibrinogen beta chain [1],15.1 µM (inactive)
same,IC50,Fibrinogen beta chain [2],> 83.3 µM (inactive)
CN(C)CCNC(=O)c1cccc2[nH]c(-c3ccncc3)nc12,AC50,[3],10 µM (active)
same,IC50,[4],10.6 µM (inactive)
COc1cccc(C(=O)Nc2cccc(NC(=O)c3ccccc3)c2)c1,IC50,[5],0.42 µM (active)
same,IC50,[6],25.9 µM (active)
same,IC50,[7],0.61 µM (active)
Cc1ccc(NC(=O)c2ccc(OC(=O)COc3cccc(Cl)c3)cc2)cc1,IC50,Prothrombin,0.596 µM (active)
Cc1nn(-c2ccccc2)c(C)c1NC(=O)Cc1cccs1,IC50,Estrogen receptor beta [8],27.1 µM (active)
same,IC50,Estrogen receptor beta [9],0.0611 µM (not active)
O=C(CCBr)N1CCN(C(=O)CCBr)CC1 [PIPOBROMAN],GI50,P388,14.1 µM (inactive)
same,GI50,P388/ADR,13.2 µM (inactive)
same,IC50,[10],> 10 µM (inactive)
same,IC50,[11],> 10 µM (inactive)
same,GI50,SN12K1,65.3 µM (inactive)
NC(=O)c1ccc(N/C=C2/C(=O)NC(=O)N(Cc3ccco3)C2=O)cc1,IC50,[12],3.45 µM (active)
same,IC50,[4],31.3 µM (inactive)
c1ccc(CNc2ncnc3scc(-c4cccs4)c23)nc1,IC50,HEK293 [13],6 µM (active)
same,IC50,HEK293 [14],5.05 µM (active)
same,AC50,[15],3.59 µM (active)
same,AC50,[16],67.1 µM (active)
same,AC50,[17],3.71 µM (active)
same,AC50,[18],6.34 µM (active)
same,AC50,[19],29.8 µM (active)
same,EC50,HEK293 [20],3.58 µM (active)
same,IC50,Tumor necrosis factor,3.22 µM (active)
same,IC50,HEK293 [21],19.8 µM (active)
same,IC50,[22],2.69 µM (active)
same,IC50,HEK293 [23],13.5 µM (active)
COCCCn1c(C(=O)NCCN2CCOCC2)cc2c(=O)n3cccc(C)c3nc21,EC50,Kallikrein-7,> 69.5 µM (inactive)
COc1ccc(C2=C(NC(=O)c3ccc4ccccc4c3)C(=O)c3ccccc3C2=O)cc1,AC50,[24],> 70 µM (inactive)
same,AC50,[25],> 70 µM (inactive)
Cc1cccc(NC(=O)C2CCN(S(=O)(=O)c3c(C)nn(C)c3C)CC2)n1,IC50,Estrogen receptor beta [8],> 50 µM (not active)
O=C1NC(=S)N/C1=C/c1ccc(-c2c(Br)cc([N+](=O)[O-])cc2Br)o1,EC50,[26],35.2 µM (active)
same,EC50,[27],40.5 µM (active)
same,IC50,[28],2.48 µM (active)
same,IC50,Protein Tat,> 100 µM (active)
same,CC50,[29],> 40 µM (active)
CC(=O)Nc1ccc(S(=O)(=O)N2CCN(CCCOc3ccccc3Cl)CC2)cc1,CC50,[29],> 40 µM (active)
CC1=C(C(=O)OC(C)C)C(c2cccc([N+](=O)[O-])c2)C(C(=O)OC2CN(C(c3ccccc3)c3ccccc3)C2)=C(N)N1 (configuration not stated) [AZELNIDIPINE],IC50,[30],12.8 µM (inactive)
same,IC50,[31],1.23 µM (active)
COCCNC(=O)Cc1c(C)c2cc3c(cc2oc1=O)OC(C)(C)CC3,EC50,Kallikrein-7,> 69.6 µM (inactive)
